Experimental data from patent publication US4532258A, “Certain cyclopropane carboxylic acid esters and their pesticidal use” (priority 1979, dated 1985).
≈ marks a conversion by molar mass, not a printed value.

Assays:
[1] = Fish toxicity test; type: in vivo; settings: guppy, water, female guppies, 20° C., 50% killed, read-out: TLm (medium tolerance limit)
Protocol: The mixture was stirred well to prepare a test water. Ten female guppies from 3 to 4 months of age were released into the test water and maintained at 20° C. The concentration of the test compound at which 50% of the guppies were killed during the ensuring 48 hours was determined. [This concentration is referred to as TLm (medium tolerance limit, ppm)].

[2] = Light stability test (residue after exposure to ultraviolet light); type: physicochemical; settings: UV 3600 Å, 31°-35° C.
Protocol: Into 2.0 ml of acetone were dissolved 80 mg of each test compound. A 5 μl portion of the solution was taken and spread on a glass plate (Micro Standard Cover Glass, 18 m/m No. 1, 200 pcs, Matsunami Glass Ind., Ltd.) and the acetone was evaporated. The specimen was exposed to ultraviolet light from a fluorescent lamp (Tokyo Shibaura Electric Co., Ltd., FL20BL, glow-type, 100 V, 24.5 W, wavelength=3600 Å) which was fixed just above the specimen at a distance of 11 cm at a temperature of 31°-35° C. for a predetermined exposure time. The test liquid was washed away with 1.0 ml of methanol containing 0.04% of dioctyl phthalate as an internal reference and high-speed liquid chromatography was carried out on the washings to determine the residual amount of the test compound.

Row | SMILES | LC50 at 48 h [1] [µg/mL] | Residue (%) ([2]; exposure time 3.5 hrs.) | Residue (%) ([2]; exposure time 3 days) | Residue (%) ([2]; exposure time 5 days)
1 | CC1(C)[C@H](C(=O)OC(C(N)=S)c2cccc(Oc3ccccc3)c2)[C@@H]1CC(Cl)(Cl)Cl (relative stereo) [(27) [Cis-isomer]] | ≥ 10 |  |  | 
2 | C#CC(OC(=O)[C@@H]1[C@@H](CC(Cl)(Cl)Cl)C1(C)C)c1cccc(Oc2ccccc2)c1 (relative stereo) [(11) [Trans-isomer]] | ≥ 10 |  |  | 
3 | CC1(C)[C@H](CC(Cl)(Cl)Cl)[C@H]1C(=O)OC(C#N)c1cccc(Oc2ccccc2)c1 (relative stereo) [(7) [Trans-isomer]] | 0.5 to 10 (≈ 1.1 to 22.1 µM) |  |  | 
4 | C=CCC1=C(C)C(OC(=O)C2C(C=C(C)C)C2(C)C)CC1=O (stereo not drawn) [Allethrin, reference compound] |  | 14 | 0 | 
5 | CC1(C)C(CC(Cl)(Cl)Cl)C1C(=O)OC(C#N)c1cccc(OC=C(Cl)Cl)c1 (stereo not drawn) [(34) [Mixture]] |  | 100 | 88 | 44
6 | C#CC(OC(=O)[C@@H]1[C@H](CC(C)(Cl)Cl)C1(C)C)c1cccc(Oc2ccccc2)c1 (relative stereo) [(13) [Cis-isomer]] | ≥ 10 |  |  | 
